For data set [1], the system named is AATAAT_ATTATT hairpin (DNA, hairpin) GGGGAATAATCGCGATTATTCCCCAATAATCGCGATTATT
Nature of the data set: SPR competition. The note with it: 200 mM NaCl, 3 mM EDTA, 10 mM HEPES pH 7.4, 0.05% P-20, 25 °C.

For data set [2] the test system is unchanged. The data set is described as follows: SPR (Biacore X-100). Particulars: Na+ 200 mM; 25 °C; site 1 of 2; running buffer for compound titration not explicitly stated. (In general: Surface plasmon resonance follows binding to a sensor surface in real time, without labels.)
Data set [3] concerns AATT hairpin (DNA, hairpin) CGAATTCGTCTCCGAATTCG
The data set is described as follows: SPR (Biacore X-100). Particulars: Na+ 200 mM; 25 °C; site 1 of 2; running buffer for compound titration not explicitly stated.

Data set [4] deals with (AT)4 hairpin (DNA, hairpin) CATATATATCCCCATATATATG
Nature of the data set: SPR (Biacore X-100). The note with it: Na+ 200 mM; 25 °C; site 1 of 2; running buffer for compound titration not explicitly stated.

The test system of data set [5] is (CG)4 hairpin (DNA, hairpin) CGCGCGCGTTTTCGCGCGCG
Nature of the data set: SPR (Biacore X-100). The note with it: Na+ 200 mM; 25 °C; one-site fit; running buffer for compound titration not explicitly stated.

In data set [6] the target is HMGB1 box A and box B (rat, UniProt P63159 8-165). Nature of the data set: SPR; K1, high-affinity site of two-site fit; SPR (Biacore X-100), HEPES 1 buffer: 10 mM HEPES, 3 mM EDTA, 200 mM NaCl, 0.05% P-20, pH 7.4, 25 C. The note with it: protein: recombinant; tags: GST (GST-tagged construct in pGEX2T); label: 5'-biotin; hairpin as stated by the authors; loop underlining lost in text.

The values below come from article PMC5737332.

HMGB1 box A and box B, sequence (P63159 8-165): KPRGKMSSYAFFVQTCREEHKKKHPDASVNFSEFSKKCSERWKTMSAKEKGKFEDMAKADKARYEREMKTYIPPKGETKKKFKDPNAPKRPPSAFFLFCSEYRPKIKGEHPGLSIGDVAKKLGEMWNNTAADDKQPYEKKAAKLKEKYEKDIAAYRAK

For the molecule `O=C(Nc1ccc(NC2=NCCN2)c(Cl)c1)c1ccc(NC2=NCCN2)cc1`, the IC50 in data set [1] (displaces 2 μM HMGA1a(Δ50-91) protein) is 6000 nM; in data set [1] (displaces 2 μM HMGB1 (box A+B) protein) it was 3400 nM. In addition, the “K1 (KD)” value amounted to 430 nM in data set [2], 262 nM in data set [3] and 650 nM in data set [4]. The “K (KD)” value in data set [5] was 6850 nM.
For the molecule GGGGAATAATCGCGATTATTCCCCAATAATCGCGATTATT (structured_DNA) [AATAAT_ATTATT hairpin], the Kd in data set [6] turned out to be 330 nM.

In general, IC50 refers to the concentration at which inhibition is half-maximal. A high value points to lower potency. For orientation: Kd means the constant that tells how readily two partners part at equilibrium.
